From patent US3952051A, “Method for crystallization of diamine dicarboxylate” (Asahi Kasei Kogyo Kabushiki Kaisha, priority 1971, dated 1976)

Test: Size of crystals collected after neutralization

## hexamethylenediamine adipate
Example 1, from aqueous medium, pH 7.5, 60°C.
  Average size of crystals: 700 microns
Comparative example, methanol as solvent
  Grain size of collected crystals: about 250 microns
